Experimental data: patent US20250236603A1, “SOLID FORMS OF ALECTINIB AND ALECTINIB SALTS” (Synthon B.V., priority 2022, published 2025)
Where two headings read alike, the source gives them in different places.

Key:
[1] = Solubilities of prepared salts (buffer pH 1.2 with 4% Triton X-100, HPLC); conditions: 100 rpm
Experimental: (§1) 20 mg of the Alectinib salt was mixed 10 ml of a mixture of buffer pH 1.2 and 4% Triton X-100. The mixture was placed into a stirring carousel at temperature +37° C. and 100 rpm. After 1 hour and 4 hours about 1 mL of each sample was taken and filtered through a 0.45 μm filter into a vial. Then each sample was diluted with Solvent solution to get signal of absorbance ≤1 at 265 nm, transferred into a vial and measured by HPLC method.
(§2) 20 mg of the Alectinib salt was mixed 10 ml of a mixture of buffer pH 1.2 and 4% Triton X-100. The mixture was placed into a stirring carousel at temperature+37° C. and 100 rpm. After 1 hour and 4 hours about 1 mL of each sample was taken and filtered through a 0.45 μm filter into a vial. Then each sample was diluted with Solvent solution to get signal of absorbance≤1 at 265 nm, transferred into a vial and measured by HPLC method.

[2] = pH 1.2
Experimental: as §1, §2

[3] = Example 18, 20 mg salt in 10 ml buffer pH 1.2 and 4% Triton X-100, +37° C.
[4] = Example 10, 20 mg salt in 10 ml buffer pH 1.2 and 4% Triton X-100, +37° C.
[5] = Example 28, 20 mg salt in 10 ml buffer pH 1.2 and 4% Triton X-100, +37° C.
[6] = Example 18, 20 mg salt in 10 ml buffer pH 1.2 and 4% Triton X-100, +37° C., maleate salt
[7] = Example 10, 20 mg salt in 10 ml buffer pH 1.2 and 4% Triton X-100, +37° C., acetate salt

Molecule | Solubility after 1 hour [1, 3] | Solubility after 1 hour [2] | also measured
CCc1cc2c(cc1N1CCC(N3CCOCC3)CC1)C(C)(C)c1[nH]c3cc(C#N)ccc3c1C2=O.O=C(O)C=CC(=O)O [Fumaric acid (1:1) salt, Form 2, Alectinib fumaric acid (1:1) salt] | 1.30 mg/mL | – | –
CCc1cc2c(cc1N1CCC(N3CCOCC3)CC1)C(C)(C)c1[nH]c3cc(C#N)ccc3c1C2=O.O=C(O)C=CC(=O)O [Fumaric acid (1:1) salt, Form 6, Alectinib fumaric acid (1:1) salt] | 1.22 mg/mL | – | –
CCc1cc2c(cc1N1CCC(N3CCOCC3)CC1)C(C)(C)c1[nH]c3cc(C#N)ccc3c1C2=O.CCc1cc2c(cc1N1CCC(N3CCOCC3)CC1)C(C)(C)c1[nH]c3cc(C#N)ccc3c1C2=O.O=C(O)C=CC(=O)O [Fumaric acid (2:1) salt, Form 2, Alectinib fumaric acid (2:1) salt] | 1.23 mg/mL | – | –
CCc1cc2c(cc1N1CCC(N3CCOCC3)CC1)C(C)(C)c1[nH]c3cc(C#N)ccc3c1C2=O.Cl [HCl, reference compound] | 0.37 mg/mL | – | Solubility after 1 hour [1, 4]: 0.37 mg/mL; Solubility after 1 hour [1, 5]: 0.37 mg/mL
CCc1cc2c(cc1N1CCC(N3CCOCC3)CC1)C(C)(C)c1[nH]c3cc(C#N)ccc3c1C2=O.O=C(O)C=CC(=O)O [Hydrogen maleate salt, Form 1, Alectinib hydrogen maleate salt] | – | – | Solubility after 1 hour [1, 6]: 2.38 mg/mL
CCc1cc2c(cc1N1CCC(N3CCOCC3)CC1)C(C)(C)c1[nH]c3cc(C#N)ccc3c1C2=O.O=C(O)C=CC(=O)O [Hydrogen maleate salt, Form 2, Alectinib hydrogen maleate salt] | – | – | Solubility after 1 hour [1, 6]: 1.26 mg/mL
CCc1cc2c(cc1N1CCC(N3CCOCC3)CC1)C(C)(C)c1[nH]c3cc(C#N)ccc3c1C2=O.CS(=O)(=O)O [Methane sulfonate salt, Form 3, Alectinib methane sulfonate salt] | – | 1.21 mg/mL | –
CCc1cc2c(cc1N1CCC(N3CCOCC3)CC1)C(C)(C)c1[nH]c3cc(C#N)ccc3c1C2=O.CS(=O)(=O)O [Methane sulfonate salt, Form 12, Alectinib methane sulfonate salt] | – | 1.35 mg/mL | –
CCc1cc2c(cc1N1CCC(N3CCOCC3)CC1)C(C)(C)c1[nH]c3cc(C#N)ccc3c1C2=O.CS(=O)(=O)O [Methane sulfonate salt, Form 13, Alectinib methane sulfonate salt] | – | 1.30 mg/mL | –
CCc1cc2c(cc1N1CCC(N3CCOCC3)CC1)C(C)(C)c1[nH]c3cc(C#N)ccc3c1C2=O.CS(=O)(=O)O [Methane sulfonate salt, Form 14, Alectinib methane sulfonate salt] | – | 1.32 mg/mL | –
CCc1cc2c(cc1N1CCC(N3CCOCC3)CC1)C(C)(C)c1[nH]c3cc(C#N)ccc3c1C2=O.CS(=O)(=O)O [Methane sulfonate salt, Form 15, Alectinib methane sulfonate salt] | – | 1.19 mg/mL | –
Alectinib acetate salt [Acetate, Form 2] | – | – | Solubility after 1 hour [1, 7]: 0.87 mg/mL
Alectinib acetate salt [Acetate, Form 4] | – | – | Solubility after 1 hour [1, 7]: 1.22 mg/mL
Alectinib tartrate salt [Tartrate, Form 8] | 1.23 mg/mL | – | –
Tosylate [reference compound] | 0.5 mg/mL | – | Solubility after 1 hour [1, 4]: 0.5 mg/mL; Solubility after 1 hour [1, 5]: 0.5 mg/mL
